Experimental data: patent publication US20170065667A1, “METHODS FOR SYNCHRONIZATION OF ESTROUS CYCLES AND OVULATION FOR FIXED TIME ARTIFICIAL INSEMINATION IN CATTLE” (Parnell Technologies Pty Ltd., priority 2014, published 2017)
Several values for one entry are separate records, joined by “and”; a condition that tells them apart may be missing. Equal values may be shown once. Read-outs that look alike come from different tables or passages of the source.

How the values were obtained:
lactating dairy cows [1] = details: cited from earlier work
lactating dairy cows [2] = experiment: Combined analysis of Experiments 1 and 2: effect of second cloprostenol sodium injection on P/AI; assay type: in vivo, cattle; details: Experiments 1 and 2 combined
Text: Experiment 1 and Experiment 2 were done with a similar experimental design and therefore results were combined in order to more thoroughly test the effect of a second cloprostenol sodium injection in the Ovsynch protocol on P/AI. There was no effect of the second PGF on P/AI in primiparous cows (P=0.304). However in multiparous cows, the second cloprostenol sodium injection increased (P=0.046) P/AI by about 12%. This effect of a second cloprostenol sodium injection on P/AI was also observed when all cows were included in the analysis (P=0.042). The final combined analysis of both experiments provided the most statistical power to test our main hypothesis (Table 6). Overall, there was increased (P=0.042) P/AI with a 9.6% relative increase in fertility. As in both experiments, the effect was only statistically detectable in multiparous (P=0.046) and not in primiparous (P=0.304) cows. In our study an effect of parity on fertility was only detected in cows treated with Ovsynch (P=0.04) and not in cows treated with Ovsynch with the second PGF treatment (P=0.17). Future studies should directly test whether parity effects with Ovsynch-type protocols are related primarily to differences in CL regression between parities or reflect other fertility differences related to parity.

lactating dairy cows [3] = details: cited from earlier work; for percentage of cows with complete CL regression (<0.4 ng/mL 56 hours after PGF2α): 7 day Ovsynch
lactating Holstein cows = experiment: Experiment 1: CL regression / circulating P4 after one vs. two 2 mL i.m. cloprostenol sodium injections in Double-Ovsynch; assay type: in vivo, cattle; details: for CL regression, % of cows: quartiles 2, 3 and 4 combined; for circulating P4 concentrations at 56 hours after the first injection: day of final gonadorelin acetate injection, serum, in ng/mL
Protocol: An experiment was conducted to determine the effectiveness of the exogenous administration of hormones for synchronizing the estrous cycles of lactating dairy cattle and resulting pregnancy rates subsequent to FTAI. A total of 373 lactating Holstein cows (172 primiparous, 201 multiparous) were synchronized with a Double-Ovsynch program comprising a first or presynchronization Ovsynch phase followed by a second Ovsynch phase. All animals were synchronized using a GnRH composition (about 100 mcg of gonadorelin acetate per mL, GONAbreed®, Parnell Technologies Pty Ltd, Alexandria, Australia) and a PGF2α analog composition (about 250 mcg of cloprostenol sodium per mL, estroPLAN®, Parnell Technologies Pty Ltd, Alexandria, Australia). The first Ovsynch phase began at about 51 to about 57 days in milk where the cows received a first 1 mL intramuscular injection of a gonadorelin acetate composition. At about 58 to about 64 days in milk, the cows received a first 2 mL intramuscular injection of a cloprostenol sodium composition. At about 61 to about 67 days in milk, the cows received a second 1 mL intramuscular injection of a gonadorelin acetate composition concluding the first Ovsynch phase. The animals were then synchronized with a second Ovsynch phase comprising an Ovsynch-56 protocol beginning at about 68 to about 74 days in milk where the cows received a third 1 mL intramuscular injection of gonadorelin acetate composition. At about 75 to about 81 days in milk, the animals received a second 2 mL intramuscular injection of a cloprostenol sodium composition. At about 77 to about 83 days in milk (about 56 hours after the second injection of a cloprostenol sodium composition), the animals received a fourth 1 mL intramuscular injection of a gonadorelin acetate composition. And at about 78 to about 84 days in milk (about 16 hours after the fourth injection of the gonadorelin acetate composition), the animals receive AI, concluding the second Ovsynch phase. […] The experimental protocol is shown in the diagram of FIG. 2. Blood samples of the cows were taken at the time of the second injection of the cloprostenol sodium composition (at about 72 hours before FTAI) and at the time of the fourth injection of the gonadorelin acetate composition (at about 16 hours before FTAI). Blood samples were collected from the coccygeal vessels into vacuum tubes. Following collection, the blood samples were placed on ice and transported to a laboratory. After clotting (about 16 hours), samples were centrifuged at 3,000 rpm for 20 minutes and serum was isolated into vials, frozen and stored at −20 Celsius until assayed for P4 concentrations. Progesterone was determined directly from serum using a solid phase radioimmunoassay kit (Coat-A-Count, Siemens Healthcare Diagnostics, Los Angeles, Calif.) with no extraction. […] Statistical analyses were performed with SAS (SAS Institute, 2006). Variables with a binomial distribution, such as P/AI and percentage of animals with CL regression, were analyzed by logistic regression using the LOGISTIC procedure. One-tailed comparisons were utilized throughout the study for comparison of the effect of an additional cloprostenol sodium injection on CL regression and animals pregnant to the FTAI. Continuous variables were analyzed using ANOVA with logistic regression utilized to compare the relationship between circulating P4 and the binomial traits. Animals with ≦2.0 ng/mL P4 on day of PGF were removed from the analysis (n=29; 13 primiparous, 16 multiparous) due to lack of synchronization to the double Ovsynch protocol. Therefore, all analyses were done with a total of 344 lactating dairy cows (n=159 primiparous; n=185 multiparous). Statistical differences were considered significant for P≦0.05 and as a tendency for P≦0.15.

[4] = dose from 500 to 750 μg, 7 day protocol
[5] = one injection, overall (all cows), P4 <0.5 ng/mL at 56 h
[6] = two injections, Quartile 1, [P4] 2.0-5.4 at first injection
[7] = two injections, overall (all cows), P4 <0.5 ng/mL at 56 h

O=C(O)CCC/C=C\CC1C(O)CC(O)C1/C=C/C(O)COc1cccc(Cl)c1 (stereo not shown) [cloprostenol sodium]
effect on fertility of increasing the dose (lactating dairy cows [1]; [4]): tended to increase fertility
increase in P/AI by second cloprostenol sodium injection (lactating dairy cows [2]; multiparous cows): about 12%
percentage of cows with complete CL regression (lactating dairy cows [3]; dinoprost 25 mg, cloprostenol 0.5 mg): 79%
effect on CL regression of increasing the dose (lactating dairy cows [3]; [4]): increased CL regression in multiparous but not primiparous cows
percentage of cows with P4 below 0.2 ng/mL at final GnRH (lactating Holstein cows; one injection): 42.0%
percentage of cows with higher P4 (>0.5 ng/mL) at final GnRH (lactating Holstein cows; one injection): 17.0%
percentage of cows with lower P4 (0.1 to 0.19) at final GnRH (lactating Holstein cows; one injection): 34.7%
CL regression, % (n/n) (lactating Holstein cows; one injection, Quartile 1, [P4] 2.0-4.8 at first injection): 66.7% and 66.7 (28/42) %
CL regression, % (n/n) (lactating Holstein cows; one injection, Quartile 2, [P4] 4.9-6.7): 84.4 (38/45) %
CL regression, % (n/n) (lactating Holstein cows; one injection, Quartile 3, [P4] 6.8-8.7): 95.5 (42/44) %
CL regression, % (n/n) (lactating Holstein cows; one injection, Quartile 4, [P4] 8.8-12): 84.4 (38/45) %
% of cows with complete CL regression (lactating Holstein cows; one injection, multiparous, P4 <0.5 ng/mL at 56 h): 84.4% (81/96)
% of cows with complete CL regression (lactating Holstein cows; [5]): 83.0% (146/176)
% of cows with complete CL regression (lactating Holstein cows; one injection, primiparous, P4 <0.5 ng/mL at 56 h after first injection): 81.2% (65/80)
CL regression, % of cows (lactating Holstein cows; one injection): 88.1%
circulating P4 concentrations at 56 hours after the first injection (lactating Holstein cows; single injection): 0.4 ± 0.04
percentage of cows with P4 below 0.2 ng/mL at final GnRH (lactating Holstein cows; two injections): 60.7%
percentage of cows with higher P4 (>0.5 ng/mL) at final GnRH (lactating Holstein cows; two injections): 2.4%
percentage of cows with lower P4 (0.1 to 0.19) at final GnRH (lactating Holstein cows; two injections): 49.4%
% of cows with complete CL regression (lactating Holstein cows; two injections (second 24 h after first), primiparous, P4 <0.5 ng/mL at 56 h): 97.5% (77/79)
CL regression, % (n/n) (lactating Holstein cows; [6]): 95.1% and 95.1 (39/41) %
CL regression, % (n/n) (lactating Holstein cows; two injections, Quartile 2, [P4] 5.5-7.0): 95.6 (43/45) %
CL regression, % (n/n) (lactating Holstein cows; two injections, Quartile 3, [P4] 7.1-8.6): 100 (43/43) %
CL regression, % (n/n) (lactating Holstein cows; two injections, Quartile 4, [P4] 8.7-12): 97.4 (38/39) %
circulating P4 concentrations at 56 hours after the first injection (lactating Holstein cows; two injections): 0.2 ± 0.05
% of cows with complete CL regression (lactating Holstein cows; two injections, multiparous, P4 <0.5 ng/mL at 56 h): 96.7% (86/89)
% of cows with complete CL regression (lactating Holstein cows; [7]): 97.0% (163/168)
CL regression, % of cows (lactating Holstein cows; two injections): 97.6%

prostaglandin F2α [PGF]
improvement in fertility in first service cows, two vs. one PGF2α (lactating dairy cows [1]; 7 day Ovsynch, not statistically significant): 5.7%
fertility in first service cows (lactating dairy cows [1]; one PGF2α treatment, 7 day Ovsynch): 47.0%
fertility in first service cows (lactating dairy cows [1]; two PGF2α treatments, 7 day Ovsynch): 52.7%
effect of the second PGF on P/AI (lactating dairy cows [2]; primiparous cows): no effect
% of cows with CL regression (lactating dairy cows [3]; cows that ovulated to the first GnRH): 79.4%
% of cows not having complete CL regression (lactating dairy cows [3]; cows with a d7 and a d14 CL): 8.2%
% of cows not having complete CL regression (lactating dairy cows [3]; cows with a single d7 CL): 35.6%
% of cows not having complete CL regression (lactating dairy cows [3]; cows with a single d14 CL): 3.0%
% of cows with CL regression (lactating dairy cows [3]; cows without ovulation to the first GnRH): 93%
percentage of cows with complete CL regression (<0.4 ng/mL 56 hours after PGF2α) (lactating dairy cows [3]; one PGF2α treatment (day 7)): 84.6%
% of cows with complete CL regression (<0.4 ng/mL at 56 hours after PGF2α) (lactating dairy cows [3]; resynchronized at 32 days after TAI with Ovsynch (Resynch-32)): 83.7%
% of cows with complete CL regression (<0.4 ng/mL at 56 hours after PGF2α) (lactating dairy cows [3]; resynchronized with Double-Ovsynch): 89.1%
% of cows with lack of complete / inadequate CL regression (lactating dairy cows [3]; single PGF2α treatment, Ovsynch-type protocols, literature): 10 to 25% and 10-25%
percentage of cows with complete CL regression (<0.4 ng/mL 56 hours after PGF2α) (lactating dairy cows [3]; two PGF2α treatments (day 7 and day 8)): 95.6%
% of cows with complete CL regression (lactating Holstein cows; [5]): 83%
% of cows that did not completely regress the CL (lactating Holstein cows; single PGF treatment, all cows): 18%
% of cows with inadequate CL regression (lactating Holstein cows; single PGF treatment, greater circulating P4 at time of PGF): 11.9%
% of cows with inadequate CL regression (lactating Holstein cows; single PGF treatment, lower P4 (2.0 to 4.8 ng/mL) at time of PGF): 33.3%
CL regression, % (n/n) (lactating Holstein cows; [6]): 95.1%
% of cows with complete CL regression (lactating Holstein cows; [7]): 97%
CL regression, % of cows (lactating Holstein cows; two injections): 97.6%
